This data set in a line: gradient 5% acetonitrile 3 min, to 50% in 2 min, to 85% in 15 min, held 3 min, 100 µL/min. Conditions: column: Zorbax Extend-C18 2.1 x 50 mm; eluents: water / acetonitrile, 0.1% formic acid. Put shortly:
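Using water and acetonitrile that each contained 0.1% formic acid, mixtures of ~100 pure standards were separated at 100 μL/min on a Zorbax Extend-C18 column (2.1 × 50 mm, 1.8 μm). The HPLC fed a quadrupole time-of-flight mass spectrometer working in positive and negative ionization mode, with dead and dwell volumes of 40 μL and 900 μL. Data were acquired over 3 months. Retention time was read from computationally picked adduct peaks after manual inspection of each.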
As to `Cc1ccc(NC(=O)N2CCC(N3CCN(Cc4ccc(F)cc4)C(=O)C3=O)CC2)cc1C`, the RP-LC retention time is 774 s. The value for `COC(=O)CNC(=O)N1CCC(N2CCN(Cc3ccc(C)cc3)C(=O)C2=O)CC1` was 644 s; that for `O=C1NCCCn2cc(S(=O)(=O)Nc3ccc(F)c(Cl)c3)cc21` was 686 s. For the compound `CC(=O)c1ccc(N2CCN(C(=O)CN3C(=O)C4C5C=CC(C5)C4C3=O)CC2)cc1` (centres undefined), the RP-LC retention time worked out at 644 s. The same measure for `CCc1cccc(NC(=O)Cn2c(N3CCOCC3)nc(CC)cc2=O)c1`: 791 s.

With `Cc1ccc(C(=O)NCC2CCCN(S(=O)(=O)c3c(C)c(C)cc(C)c3C)C2)cc1` (centres undefined), the RP-LC retention time amounted to 1100 s. The value for `CN1C(=O)c2ccccc2Oc2ccc(C(=O)NCc3ccc(Br)cc3)cc21` was 955 s; that for `COc1ccc(N2CCN(C(=O)Cn3ccc4c(SCc5ccccc5)nccc43)CC2)cc1` was 743 s. `Cc1ccc(CN2CCn3c(nn(C)c3=O)C2)nc1` came in with an RP-LC retention time of 530 s. Consider `O=C(NCc1ccccc1)c1ccc(=O)n(CCN2CCCC2)c1`, for which the RP-LC retention time was 579 s. The value for `O=C(NCc1ccccc1)c1ccc(CN2CCN(Cc3ccc(F)cc3)C(=O)C2=O)cc1` was 774 s; that for `CN(CC(=O)Nc1ccc(S(N)(=O)=O)cc1)c1nc2ccccc2s1` was 662 s; that for `O=C(NC1CC1)C1CCCN(c2nc3ncn(CC(=O)N4CCc5ccccc5C4)c(=O)c3s2)C1` (centres undefined) was 689 s. The value for `Cc1cc(C)c(S(=O)(=O)N2CC(c3nc(Cc4ccccc4)no3)C2)c(C)c1` was 1190 s.

On to `CN(C)c1nn(CC(=O)Nc2ccc(F)c(Cl)c2)c(=O)c2ccccc12`, for which the RP-LC retention time was 928 s. The same measure for `Cc1ccc(NC(=O)Cn2c(C)nc3c(sc4nc(-c5ccccc5)ccc43)c2=O)cc1C`: 1120 s; for `CCN(CC)S(=O)(=O)c1ccc2c(c1)CC(C(=O)NC1CCCC1)N2C(C)=O` (centres undefined): 855 s; for `CS(=O)(=O)c1ccc(C(=O)Nc2cccc(Cl)c2Cl)cc1`: 791 s. The value for `O=C(CCCc1nc2cccnc2n1Cc1ccc(F)cc1)N1CCN(c2ccccn2)CC1` was 606 s; that for `Cc1oc(C2CCN(C(=O)Nc3ccc(Br)cc3)CC2)nc1C(=O)N(C)C` was 759 s; that for `Cc1cnn(Cc2nc(-c3ccc(NC(=O)c4cc(C)on4)cc3)oc2C)c1` was 876 s. Take `CCn1nnc(NCc2ccc(-c3ccc(Br)cc3Cl)o2)n1`: the RP-LC retention time was 1120 s. The same measure for `COc1cc(CN2CC(Oc3ccc(-c4noc(C5CC5)n4)cc3)C2)cc(OC)c1`: 772 s. `Cc1nc(-c2cccc(-c3noc(C(=O)NCCCN4CCC(C)CC4)n3)c2)cs1` showed an RP-LC retention time of 699 s. The value for `O=C(Nc1cccc(F)c1)C1CCCN(c2nc3ccccc3nc2C(F)(F)F)C1` (centres undefined) was 1210 s.

In turn, `Cc1ccc(C)c(NC(=O)NC2CCN(c3ccc(F)cc3)C2=O)c1` (centres undefined) showed an RP-LC retention time of 842 s. The compound `O=C(C1CCN(c2ncnc3c2oc2ccccc23)CC1)N1CCC(Cc2ccccc2)CC1` yielded an RP-LC retention time of 995 s. The same measure for `CCOC(=O)CNC(=O)NCc1cccn1Cc1ccc(F)cc1`: 772 s; for `CC(C)[C@H](CO)Nc1nc(Sc2cccc(N)c2)c2ncn(C(C)C)c2n1`: 706 s; for `CCc1noc(NC(C)=O)c1-c1ccc(OC)c(S(=O)(=O)N2CCc3ccccc32)c1`: 860 s. The value for `CCn1cc2c(n1)c(=O)n(Cc1ccc(F)cc1)c(=O)n2CC(=O)Nc1cc(F)ccc1F` was 905 s; that for `O=C(CSc1nc(N2CCCCC2)nc2ccccc12)Nc1cccc(Br)c1` was 812 s; that for `CC1CCN(C(=O)C2CCN(c3cncnc3N3CCN(C)CC3)CC2)CC1` was 558 s.

Regarding `O=C(Nc1ccc2c(c1)CN(S(=O)(=O)c1cccnc1)CCO2)C1CC1`, the RP-LC retention time was determined as 712 s. The value for `Cc1ccccc1S(=O)(=O)N1CCC(C(=O)NCCc2csc(-c3cccs3)n2)CC1` was 922 s; that for `Cc1cccc(-n2c(=O)c3sccc3n(Cc3nc(-c4ccccc4C)no3)c2=O)c1` was 1070 s. The compound `c1ccc(-c2csc(Nc3ccccn3)n2)cc1` had an RP-LC retention time of 860 s. The same measure for `O=C(Nc1cccc(Cl)c1F)N1CC(F)(F)C[C@H]1CN1CCCC1`: 662 s; for `COc1cc(C(C)=O)ccc1OCC(O)CN1CCN(c2cccc(C)c2C)CC1` (centres undefined): 597 s.

`CSc1ncc(C(=O)N2CCN(c3ccccn3)CC2)c(-c2ccccc2)n1` came in with an RP-LC retention time of 837 s. The value for `CCN1C(=O)c2cc(S(=O)(=O)Nc3ccccc3)ccc2Oc2cccnc21` was 959 s; that for `COc1ccc(S(=O)(=O)N2CCCC(C(=O)NC3CCCC3)C2)cc1OC` (centres undefined) was 802 s; that for `CC(C)n1c(=O)oc2cc(-c3noc(-c4ccc5cc[nH]c5c4)n3)ccc21` was 1100 s. The same measure for `CCc1nncn1C1CCN(S(=O)(=O)c2ccc(C)c(Cl)c2)CC1`: 754 s; for `CSc1ccc(-c2nc3cnccn3c2Nc2cccc(C(=O)NCCN(C)C)c2)cc1`: 605 s; for `CC(C)n1cnc2ccc(-c3noc(CSc4ccncc4)n3)cc21`: 565 s. The same measure for `Cc1cc(NC(=O)C(C)C)nn1Cc1ccccc1`: 778 s; for `CNC(=O)[C@@H]1CN(C(=O)Cc2ccc(Br)cc2)C[C@H]1CO`: 604 s.

`O=C(Cn1cncn1)N1CCC(c2nnc(C(F)(F)F)o2)CC1` came in with an RP-LC retention time of 588 s.

With `COc1ccc(-c2ccnc3nc(C(C)C)nn23)c(F)c1`, the RP-LC retention time is 840 s. On to `Cc1ccc(S(=O)(=O)N2CCC3(CC2)CN(C)CC3c2noc(C3CC3)n2)cc1` (centres undefined), for which the RP-LC retention time came out at 638 s.

On to `Cc1oc(-c2[nH]ncc2C(=O)N(C)C)cc1S(=O)(=O)NC(C)C`, for which the RP-LC retention time turned out to be 600 s. Take `COc1ccc(-n2c(=O)c(C(=O)Nc3ccccc3Cl)c(O)c3cccnc32)cc1`: the RP-LC retention time worked out at 1270 s. The value for `O=C(CCC1CCCC1)N1CCN(c2nnc3c(Cl)cccn23)CC1` was 691 s.

With `CC(=O)N1c2ccc(S(=O)(=O)N3CCCCCC3)cc2CC1C(=O)NCc1ccccc1` (centres undefined), the RP-LC retention time came to 912 s. The same measure for `COc1ccccc1CC(=O)Nc1ccc2c(c1)CCC(=O)N2`: 670 s; for `CCCN1C(=O)CCc2cc(NS(=O)(=O)c3ccccc3C(F)(F)F)ccc21`: 860 s. The same measure for `O=C(Nc1cccn2cnnc12)c1ccc(C(F)(F)F)cc1`: 744 s. The same measure for `COc1ccc(-n2c(=O)c(C(=O)NC(C)c3ccc(F)cc3)c(O)c3cccnc32)cc1` (centres undefined): 1220 s.

The record behind these values is the METLIN SMRT retention time set (Domingo-Almenara et al. 2019).
